Test results: patent EP1976513B1 (priority 2006, dated 2007)
Values joined by “and” are separate entries in the source; they are usually repeats but may differ in a detail not shown here. Equal values may be shown once. Read-outs that look alike come from different tables or passages of the source.

How the values were obtained:
[1] = system: mice; experiment: Mouse locomotor activity; assay type: in vivo; settings: PO
Experimental: (§1) In order to ensure effects of the compounds on immobility time were not related to a general stimulant effect on baseline motor activity, locomotor activity was assessed using photocell monitored cages (Med-Associates Inc.). Each test chamber was equipped with infrared photocell beams to measure movement of the animals. Horizontal and vertical activity were measured
(§2) Rats or mice were pretreated with vehicle or test compounds and placed back in home cage, following which they will be individually placed in locomotor cages and activity was monitored in 5 minute intervals for up to 60 min.
(§3) Data were analyzed by one way analysis of variance (ANOVA) followed by post-hoc comparisons where appropriate. An effect was considered significant if p < 0.05. Data are represented as the mean and standard error to the mean (s.e.m).

[2] = target: T1, dopamine transporter (Rattus norvegicus, UniProt P23977); experiment: biochemical; settings: Rat IC50 (nM) rDAT, rat synaptosomes, dopamine transporter (DAT)
T1 construct: synaptosomes isolated in a 0.32 M sucrose buffer from a male Wistar rat striatum; from tissue; host or cells: male Wistar rat striatum synaptosomes
T1 sequence (P23977 whole entry): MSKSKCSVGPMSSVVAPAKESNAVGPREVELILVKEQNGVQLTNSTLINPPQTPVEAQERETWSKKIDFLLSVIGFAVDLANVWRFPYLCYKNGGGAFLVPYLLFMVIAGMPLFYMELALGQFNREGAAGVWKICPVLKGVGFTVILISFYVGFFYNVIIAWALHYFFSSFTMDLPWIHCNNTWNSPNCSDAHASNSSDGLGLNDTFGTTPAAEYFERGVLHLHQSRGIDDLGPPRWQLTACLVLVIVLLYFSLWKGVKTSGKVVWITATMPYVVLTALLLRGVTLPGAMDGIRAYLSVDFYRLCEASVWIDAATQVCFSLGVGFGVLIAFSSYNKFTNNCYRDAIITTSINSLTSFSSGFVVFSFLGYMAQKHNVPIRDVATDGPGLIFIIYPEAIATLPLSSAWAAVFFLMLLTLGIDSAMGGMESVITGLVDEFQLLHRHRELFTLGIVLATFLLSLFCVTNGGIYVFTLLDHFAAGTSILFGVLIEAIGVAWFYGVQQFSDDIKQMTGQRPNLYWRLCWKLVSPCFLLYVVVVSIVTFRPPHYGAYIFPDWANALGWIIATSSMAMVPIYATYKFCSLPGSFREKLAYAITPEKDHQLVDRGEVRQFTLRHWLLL

[3] = system: mice; experiment: Mouse tail suspension test; assay type: in vivo; settings: PO, 30-60 minutes before the test, 5 minutes recording
[4] = system: Rats; experiment: Rat locomotor activity; assay type: in vivo; settings: PO
Experimental: as §1, §2, §3

[5] = system: Rats; experiment: Rat forced swim test; assay type: in vivo; settings: PO, 24 hours and 30-60 minutes before the 5 minute test
[6] = target: T2, DA Transporter (DAT) Sites in Mouse Brain (Mus musculus, UniProt Q61327); experiment: Ex vivo [3H] WIN 35428 binding after oral dosing; parameters: species or system C57BL/6 mice; settings: for % Transporter Occupancy, DAT: 60 minutes after treatment, vs vehicle; for Mean Specific Binding (dpm) ± S.E.M., DAT: mice sacrificed 60 minutes after treatment, striatum
T2 construct: Striatum was used to determine occupancy of DA transporter sites; from tissue; host or cells: C57BL/6 mouse striatum homogenate
T2 sequence (Q61327 whole entry): as the sequence (P23977 whole entry) above, with S21P, A57V, A194S, H600R, L619V counted along it

[7] = target: human serotonin reuptake transporter (Homo sapiens, UniProt P31645); experiment: cell-based; settings: recombinant human serotonin transporter (SERT); read-out: Human IC50 (nM) hSERT
Chain of human serotonin reuptake transporter (P31645 whole entry): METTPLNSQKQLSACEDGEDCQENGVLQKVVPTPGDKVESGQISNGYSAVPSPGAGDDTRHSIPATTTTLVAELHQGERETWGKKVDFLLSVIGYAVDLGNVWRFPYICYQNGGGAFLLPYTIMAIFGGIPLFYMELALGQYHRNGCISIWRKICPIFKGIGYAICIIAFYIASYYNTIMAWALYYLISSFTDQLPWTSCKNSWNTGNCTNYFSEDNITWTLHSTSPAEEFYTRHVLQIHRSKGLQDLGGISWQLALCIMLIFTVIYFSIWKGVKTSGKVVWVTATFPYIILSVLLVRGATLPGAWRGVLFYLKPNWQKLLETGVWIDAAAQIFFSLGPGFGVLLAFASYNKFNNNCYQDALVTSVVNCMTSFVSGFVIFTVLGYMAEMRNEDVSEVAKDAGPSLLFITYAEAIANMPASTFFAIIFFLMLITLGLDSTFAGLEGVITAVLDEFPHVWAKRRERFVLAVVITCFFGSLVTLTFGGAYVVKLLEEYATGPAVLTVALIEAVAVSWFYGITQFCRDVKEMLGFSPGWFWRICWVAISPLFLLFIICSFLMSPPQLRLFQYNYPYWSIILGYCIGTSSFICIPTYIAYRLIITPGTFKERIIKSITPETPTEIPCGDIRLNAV

[8] = target: Norepinephrine Transporter (NET) Sites in Mouse Brain (Mus musculus, UniProt O55192); settings: PO; for % Transporter Occupancy, NET: 60 minutes after treatment, vs vehicle; for Mean Specific Binding (dpm) ± S.E.M., NET: mice sacrificed 60 minutes after treatment, cortex
Chain of Norepinephrine Transporter (NET) Sites in Mouse Brain (O55192 whole entry): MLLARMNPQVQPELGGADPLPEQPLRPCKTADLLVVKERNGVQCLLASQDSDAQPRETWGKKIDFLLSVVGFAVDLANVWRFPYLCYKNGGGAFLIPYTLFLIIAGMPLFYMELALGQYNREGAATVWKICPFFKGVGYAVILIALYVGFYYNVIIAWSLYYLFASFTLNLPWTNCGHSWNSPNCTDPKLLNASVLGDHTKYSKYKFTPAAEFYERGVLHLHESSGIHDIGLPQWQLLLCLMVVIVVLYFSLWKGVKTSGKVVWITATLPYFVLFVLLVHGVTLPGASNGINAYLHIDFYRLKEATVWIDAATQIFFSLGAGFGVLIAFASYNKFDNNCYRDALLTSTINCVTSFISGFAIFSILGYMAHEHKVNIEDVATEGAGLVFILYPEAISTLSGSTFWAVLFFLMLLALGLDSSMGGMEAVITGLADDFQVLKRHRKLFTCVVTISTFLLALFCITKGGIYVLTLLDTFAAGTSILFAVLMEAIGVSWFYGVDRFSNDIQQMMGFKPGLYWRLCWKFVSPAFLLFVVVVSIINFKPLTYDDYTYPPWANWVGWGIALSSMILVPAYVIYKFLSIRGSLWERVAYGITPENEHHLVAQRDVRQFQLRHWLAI

[9] = target: T3, 5-HT Transporter (SERT) Sites in Mouse Brain (Mus musculus, UniProt Q60857); experiment: Ex vivo [3H] citalopram binding after oral dosing; parameters: species or system C57BL/6 mice; settings: for % Transporter Occupancy, SERT: 60 minutes after treatment, vs vehicle; for Mean Specific Binding (dpm) ± S.E.M., SERT: mice sacrificed 60 minutes after treatment, cortex
T3 construct: Whole brains were removed and cortex and striata dissected out; from tissue; host or cells: C57BL/6 mouse frontal cortex homogenate
T3 sequence (Q60857 whole entry): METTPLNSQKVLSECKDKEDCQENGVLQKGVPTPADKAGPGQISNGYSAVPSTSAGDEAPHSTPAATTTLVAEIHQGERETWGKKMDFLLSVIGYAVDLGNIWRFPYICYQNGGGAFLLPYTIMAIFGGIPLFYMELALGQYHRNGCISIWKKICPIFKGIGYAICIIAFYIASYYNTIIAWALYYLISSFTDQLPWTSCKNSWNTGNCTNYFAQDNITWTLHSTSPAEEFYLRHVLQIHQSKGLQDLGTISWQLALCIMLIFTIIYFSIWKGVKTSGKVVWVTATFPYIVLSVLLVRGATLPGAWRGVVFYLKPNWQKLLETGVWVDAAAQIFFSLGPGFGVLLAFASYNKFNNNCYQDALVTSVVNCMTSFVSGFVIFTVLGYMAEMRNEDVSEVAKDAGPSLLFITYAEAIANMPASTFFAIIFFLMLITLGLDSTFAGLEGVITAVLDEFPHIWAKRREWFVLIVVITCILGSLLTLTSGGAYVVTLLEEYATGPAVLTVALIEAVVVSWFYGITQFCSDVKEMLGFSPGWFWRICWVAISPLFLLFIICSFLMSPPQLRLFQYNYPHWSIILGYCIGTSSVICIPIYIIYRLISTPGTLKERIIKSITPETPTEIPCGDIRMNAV

[10] = target: T4, human dopamine reuptake transporter (Homo sapiens, UniProt Q01959); experiment: cell-based; settings: recombinant human dopamine transporter (DAT); read-out: Human IC50 (nM) hDAT
T4 construct: expressed in transfected cells; host or cells: CHO-K1 or HEK293
T4 sequence (Q01959 whole entry): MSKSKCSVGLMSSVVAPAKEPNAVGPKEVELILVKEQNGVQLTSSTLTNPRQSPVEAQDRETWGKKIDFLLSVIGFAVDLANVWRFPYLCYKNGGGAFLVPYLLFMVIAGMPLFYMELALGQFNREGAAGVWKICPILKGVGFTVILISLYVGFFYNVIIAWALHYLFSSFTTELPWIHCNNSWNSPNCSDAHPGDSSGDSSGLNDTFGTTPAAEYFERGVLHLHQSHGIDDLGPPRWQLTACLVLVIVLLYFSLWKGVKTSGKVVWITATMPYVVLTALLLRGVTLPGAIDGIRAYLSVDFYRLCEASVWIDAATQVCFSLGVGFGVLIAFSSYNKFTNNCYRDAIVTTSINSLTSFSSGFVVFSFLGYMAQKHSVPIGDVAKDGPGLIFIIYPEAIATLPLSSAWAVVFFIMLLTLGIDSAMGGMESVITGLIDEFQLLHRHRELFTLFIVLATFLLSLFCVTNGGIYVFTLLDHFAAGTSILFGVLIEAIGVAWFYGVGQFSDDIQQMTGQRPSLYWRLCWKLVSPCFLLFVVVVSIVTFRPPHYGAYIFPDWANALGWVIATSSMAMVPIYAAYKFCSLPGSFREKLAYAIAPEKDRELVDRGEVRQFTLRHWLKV

## CNCC1(c2ccc(Cl)c(Cl)c2)CCCCC1.Cl [Compound 75, 1-(1-(3,4-dichlorophenyl)cyclohexyl)-N-methylmethanamine (hydrochloride)]
[1]; 3 mg/kg
  Mouse Locomotor Activity Total Distance Traveled ± S.E.M.: 653.5 ± 48.4
[1]; 10 mg/kg
  Mouse Locomotor Activity Total Distance Traveled ± S.E.M.: 608.8 ± 83.4
[1]; 30 mg/kg
  Mouse Locomotor Activity Total Distance Traveled ± S.E.M.: 655.3 ± 117.7
[2]
  IC50: 58 nM
[3]; 3 mg/kg
  Mouse Tail Suspension Mean Immobility Time ± S.E.M.: 187.8 ± 9.6
[3]; 10 mg/kg
  Mouse Tail Suspension Mean Immobility Time ± S.E.M.: 177.7 ± 5.8
[3]; 30 mg/kg
  Mouse Tail Suspension Mean Immobility Time ± S.E.M.: 143.5 ± 5.8

## CNCC1(c2ccc3ccccc3c2)CCCCC1 [Compound 93, N-methyl-1-(1-(naphthalen-2-yl)cyclohexyl)methanamine]
[1]; 3 mg/kg
  Mouse Locomotor Activity Total Distance Traveled ± S.E.M.: 644.0 ± 55.7
[1]; 10 mg/kg
  Mouse Locomotor Activity Total Distance Traveled ± S.E.M.: 606.9 ± 72.4
[1]; 30 mg/kg
  Mouse Locomotor Activity Total Distance Traveled ± S.E.M.: 737.6 ± 89.5
[4]; 3 mg/kg
  Rat Locomotor Activity Total Distance Traveled ± S.E.M.: 1802.6 ± 150.6
[4]; 10 mg/kg
  Rat Locomotor Activity Total Distance Traveled ± S.E.M.: 1641.0 ± 144.5
[4]; 30 mg/kg
  Rat Locomotor Activity Total Distance Traveled ± S.E.M.: 2095.6 ± 147.2
[5]; 3 mg/kg
  Rat Forced Swim (Means ± S.E.M.) Climbing: 9.0 ± 1.3
  Rat Forced Swim (Means ± S.E.M.) Immobility: 44.5 ± 2.5
  Rat Forced Swim (Means ± S.E.M.) Swimming: 6.5 ± 1.6
[5]; 10 mg/kg
  Rat Forced Swim (Means ± S.E.M.) Climbing: 12.8 ± 2.2
  Rat Forced Swim (Means ± S.E.M.) Immobility: 41.4 ± 2.8
  Rat Forced Swim (Means ± S.E.M.) Swimming: 6.9 ± 1.3
[5]; 30 mg/kg
  Rat Forced Swim (Means ± S.E.M.) Climbing: 22.2 ± 3.5
  Rat Forced Swim (Means ± S.E.M.) Immobility: 25.8 ± 5.4
  Rat Forced Swim (Means ± S.E.M.) Swimming: 12.0 ± 2.1
[3]; 3 mg/kg
  Mouse Tail Suspension Mean Immobility Time ± S.E.M.: 203.5 ± 8.0
[3]; 10 mg/kg
  Mouse Tail Suspension Mean Immobility Time ± S.E.M.: 185.4 ± 7.9
[3]; 30 mg/kg
  Mouse Tail Suspension Mean Immobility Time ± S.E.M.: 162.0 ± 8.1

## CN(C)C[C@]1(c2ccc3ccccc3c2)CC[C@](C)(O)CC1 [Compound 225, 4-((dimethylamino)methyl)-1-methyl-4-(naphthalen-2-yl)cyclohexanol]
[6]; 1 mg/kg
  % Transporter Occupancy, DAT: 3%
  Mean Specific Binding (dpm) ± S.E.M., DAT: 19787 ± 3338 dpm
[6]; 3 mg/kg
  % Transporter Occupancy, DAT: -6%
  Mean Specific Binding (dpm) ± S.E.M., DAT: 21666 ± 3698 dpm
[6]; 10 mg/kg
  % Transporter Occupancy, DAT: 8%
  Mean Specific Binding (dpm) ± S.E.M., DAT: 18872 ± 2775 dpm
[6]; 30 mg/kg
  % Transporter Occupancy, DAT: 29%
  Mean Specific Binding (dpm) ± S.E.M., DAT: 14618 ± 1209 dpm
[7]
  IC50: 7 nM
[1]; 0.3 mg/kg
  Mouse Locomotor Activity Total Distance Traveled ± S.E.M.: 519.5 ± 56.4
[1]; 1 mg/kg
  Mouse Locomotor Activity Total Distance Traveled ± S.E.M.: 423.4 ± 62.3
[1]; 10 mg/kg
  Mouse Locomotor Activity Total Distance Traveled ± S.E.M.: 234.2 ± 49.4
[1]; 30 mg/kg
  Mouse Locomotor Activity Total Distance Traveled ± S.E.M.: 177.4 ± 47.8
[4]; 3 mg/kg
  Rat Locomotor Activity Total Distance Traveled ± S.E.M.: 1783.4 ± 182.7
[4]; 10 mg/kg
  Rat Locomotor Activity Total Distance Traveled ± S.E.M.: 1628.5 ± 159.2
[4]; 30 mg/kg
  Rat Locomotor Activity Total Distance Traveled ± S.E.M.: 2182.8 ± 151.2
[8]; 1 mg/kg
  % Transporter Occupancy, NET: 25%
  Mean Specific Binding (dpm) ± S.E.M., NET: 1170 ± 68 dpm
[8]; 3 mg/kg
  % Transporter Occupancy, NET: 48%
  Mean Specific Binding (dpm) ± S.E.M., NET: 813 ± 64 dpm
[8]; 10 mg/kg
  % Transporter Occupancy, NET: 75%
  Mean Specific Binding (dpm) ± S.E.M., NET: 393 ± 21 dpm
[8]; 30 mg/kg
  % Transporter Occupancy, NET: 85%
  Mean Specific Binding (dpm) ± S.E.M., NET: 230 ± 33 dpm
[5]; 3 mg/kg
  Rat Forced Swim (Means ± S.E.M.) Climbing: 8.4 ± 1.7
  Rat Forced Swim (Means ± S.E.M.) Immobility: 50.8 ± 1.8
[5]; 10 mg/kg
  Rat Forced Swim (Means ± S.E.M.) Climbing: 11.1 ± 2.7
  Rat Forced Swim (Means ± S.E.M.) Immobility: 47.6 ± 3.0
  Rat Forced Swim (Means ± S.E.M.) Swimming: 1.2 ± 0.6
[5]; 30 mg/kg
  Rat Forced Swim (Means ± S.E.M.) Climbing: 25.0 ± 4.6
  Rat Forced Swim (Means ± S.E.M.) Immobility: 33.4 ± 4.8
  Rat Forced Swim (Means ± S.E.M.) Swimming: 1.1 ± 0.5
[3]; 0.3 mg/kg
  Mouse Tail Suspension Mean Immobility Time ± S.E.M.: 188.1 ± 8.0
[3]; 1 mg/kg
  Mouse Tail Suspension Mean Immobility Time ± S.E.M.: 186.5 ± 5.2
[3]; 3 mg/kg
  Mouse Tail Suspension Mean Immobility Time ± S.E.M.: 158.5 ± 4.9 and 155.2 ± 6.0
[3]; 10 mg/kg
  Mouse Tail Suspension Mean Immobility Time ± S.E.M.: 137.8 ± 5.2
[3]; 30 mg/kg
  Mouse Tail Suspension Mean Immobility Time ± S.E.M.: 136.3 ± 2.5
[9]; 1 mg/kg
  % Transporter Occupancy, SERT: 17%
  Mean Specific Binding (dpm) ± S.E.M., SERT: 3842 ± 152 dpm
[9]; 3 mg/kg
  % Transporter Occupancy, SERT: 54%
  Mean Specific Binding (dpm) ± S.E.M., SERT: 2118 ± 139 dpm
[9]; 10 mg/kg
  % Transporter Occupancy, SERT: 81%
  Mean Specific Binding (dpm) ± S.E.M., SERT: 904 ± 35 dpm
[9]; 30 mg/kg
  % Transporter Occupancy, SERT: 91%
  Mean Specific Binding (dpm) ± S.E.M., SERT: 414 ± 37 dpm

## CN(C)CC1(c2ccc(Cl)c(Cl)c2)CCC(F)CC1 (stereo not shown) [Compound 254, 1-(1-(3,4-dichlorophenyl)-4-fluorocyclohexyl)-N,N-dimethylmethanamine]
[7]
  IC50: 294 nM
[2]
  IC50: 100 nM
[10]
  IC50: < 1 nM
